Reference: paper PMC7109250, “Cloning and Functional Characterization of Three Odorant Receptors From the Chinese Citrus fly Bactrocera minax (Diptera: Tephritidae)” (Frontiers in Physiology, 2020)

biological target: T1, BminOR3 (Bactrocera minax, UniProt A0A6N0A5L8); experiment: two-electrode voltage clamp in Xenopus oocytes co-expressing BminOR3/BminOrco, dose-response; format: cell-based
T1 construct: gene OR5; full-length ORF (450 amino acid residues), GenBank MN537976; with BminOrco
T1 sequence (A0A6N0A5L8 1-451): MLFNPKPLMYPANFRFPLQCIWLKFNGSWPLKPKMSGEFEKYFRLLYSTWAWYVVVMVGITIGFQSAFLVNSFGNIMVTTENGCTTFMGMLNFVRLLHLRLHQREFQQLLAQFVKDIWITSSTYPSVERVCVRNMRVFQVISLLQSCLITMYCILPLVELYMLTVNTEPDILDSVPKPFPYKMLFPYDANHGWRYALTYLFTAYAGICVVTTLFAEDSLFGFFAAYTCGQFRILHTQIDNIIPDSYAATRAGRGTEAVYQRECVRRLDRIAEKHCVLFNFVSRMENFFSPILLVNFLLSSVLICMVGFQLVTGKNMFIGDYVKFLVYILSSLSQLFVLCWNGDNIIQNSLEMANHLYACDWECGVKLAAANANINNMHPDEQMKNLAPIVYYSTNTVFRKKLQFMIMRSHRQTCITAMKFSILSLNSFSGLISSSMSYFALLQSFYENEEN
T1 sequence (A0A3G2LEL3 1-517 partner): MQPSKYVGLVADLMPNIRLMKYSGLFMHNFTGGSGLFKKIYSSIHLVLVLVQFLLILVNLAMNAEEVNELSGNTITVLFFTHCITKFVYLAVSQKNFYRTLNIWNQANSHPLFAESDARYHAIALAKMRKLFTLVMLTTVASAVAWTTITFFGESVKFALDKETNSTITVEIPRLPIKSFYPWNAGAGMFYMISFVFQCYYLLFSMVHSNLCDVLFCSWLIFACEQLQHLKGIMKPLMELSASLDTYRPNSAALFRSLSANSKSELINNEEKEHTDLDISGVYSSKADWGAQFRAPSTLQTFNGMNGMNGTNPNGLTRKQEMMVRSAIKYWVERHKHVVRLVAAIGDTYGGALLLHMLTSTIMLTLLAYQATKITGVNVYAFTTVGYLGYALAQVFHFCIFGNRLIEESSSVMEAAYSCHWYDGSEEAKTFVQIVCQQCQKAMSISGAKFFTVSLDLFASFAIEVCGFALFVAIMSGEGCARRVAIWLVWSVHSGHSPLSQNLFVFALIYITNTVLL
Excerpt: two-electrode voltage clamp in Xenopus oocytes co-expressing BminOR3/BminOrco, dose-response on BminOR3 | Dose-response curve of BminOR3/BminOrco Xenopus oocytes to 1-octen-3-ol.

| SMILES | EC50 |
| --- | --- |
| C=CC(O)CCCCC (stereo not shown) [compound 2, 1-octen-3-ol] | 347 nM |

biological target: T2, BminOR16 (Bactrocera minax, UniProt A0A6N0A5X5); experiment: two-electrode voltage clamp in Xenopus oocytes, mean current at […]; format: cell-based
T2 construct: gene OR16; full-length ORF (404 amino acid residues), GenBank MN537977; with BminOrco
T2 sequence (A0A6N0A5X5 1-405): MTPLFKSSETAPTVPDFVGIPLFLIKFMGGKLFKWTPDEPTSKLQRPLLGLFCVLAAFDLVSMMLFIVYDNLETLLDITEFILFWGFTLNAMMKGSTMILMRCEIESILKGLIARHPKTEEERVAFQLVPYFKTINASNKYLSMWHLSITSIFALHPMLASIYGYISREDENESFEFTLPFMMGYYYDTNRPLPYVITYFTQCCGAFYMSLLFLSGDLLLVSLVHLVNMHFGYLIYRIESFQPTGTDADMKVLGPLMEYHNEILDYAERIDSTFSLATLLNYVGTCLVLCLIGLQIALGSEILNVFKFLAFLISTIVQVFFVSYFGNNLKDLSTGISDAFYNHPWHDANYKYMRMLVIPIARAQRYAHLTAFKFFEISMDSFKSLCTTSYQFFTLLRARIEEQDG
T2 sequence (A0A3G2LEL3 1-517 partner): T1 sequence (A0A3G2LEL3 1-517 partner)

| SMILES | two-electrode voltage clamp in Xenopus oocytes, mean current at 10^-4 M |
| --- | --- |
| CCCCCCCCCCCO [compound 35, undecanol] | 87 nA |

biological target: T3, BminOR12 (Bactrocera minax, UniProt A0A6H1V5Y2); experiment: as above; format: cell-based
T3 construct: gene OR12; full-length ORF (415 amino acid residues), GenBank MN855530; with BminOrco
T3 sequence (A0A6H1V5Y2 1-415): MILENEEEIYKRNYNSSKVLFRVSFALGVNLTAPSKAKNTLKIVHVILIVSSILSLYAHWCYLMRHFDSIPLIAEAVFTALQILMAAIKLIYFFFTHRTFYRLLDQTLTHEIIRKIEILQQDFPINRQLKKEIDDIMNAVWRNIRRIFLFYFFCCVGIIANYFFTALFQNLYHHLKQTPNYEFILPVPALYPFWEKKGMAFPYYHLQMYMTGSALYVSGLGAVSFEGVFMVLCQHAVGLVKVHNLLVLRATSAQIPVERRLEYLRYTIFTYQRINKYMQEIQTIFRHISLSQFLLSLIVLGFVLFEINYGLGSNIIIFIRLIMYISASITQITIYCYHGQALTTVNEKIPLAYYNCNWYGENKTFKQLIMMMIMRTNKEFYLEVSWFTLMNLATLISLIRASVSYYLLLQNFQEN
T3 sequence (A0A3G2LEL3 1-517 partner): T1 sequence (A0A3G2LEL3 1-517 partner)
Excerpt: The respective mean response values of these are | BminOR12/BminOrco responded to eight compounds: benzyl alcohol, (S)-(+)-carvone, 1-octanol, butyl propionate, butyl acrylate

| SMILES | two-electrode voltage clamp in Xenopus oocytes, mean current at 10^-4 M |
| --- | --- |
| O=Cc1ccccc1 [compound 9, benzaldehyde] | 94 nA |
| COC(=O)c1ccccc1O [compound 10, methyl salicylate] | 138 nA |
| C=C(C)[C@H]1CC=C(C)C(=O)C1 [compound 15, (S)-(+)-carvone] | 34 nA |
| OCc1ccccc1 [compound 16, benzyl alcohol] | 33 nA |
| CCCCOC(=O)CC [compound 31, butyl propionate] | 60 nA |
| CCCCCCCCO [compound 37, 1-octanol] | 46 nA |
| C=CC(=O)OCCCC [compound 40, butyl acrylate] | 63 nA |
| CC/C=C\CCOC(C)=O [compound 43, (Z)-3-hexenyl acetate] | 91 nA |
